How the values were obtained:
wildtype K-Ras = molecular target: T1, wildtype K-Ras (Homo sapiens, UniProt P01116); test: PPI-HTRF assay, wildtype K-Ras / SOS1 interaction; format: biochemical; conditions: HTRF, K-Ras wt; read-out: PPI-HTRF-5 nM (K-Ras wt IC50)
T1 construct: made in house; host or cells: E. coli, e.g. BL21 (DE3)
Excerpt: (§1) This assay can be also used to assess a selective inhibition or reduction of signaling output of a mutant Ras protein relative to a wildtype, or relative to a different mutant Ras protein. For example, the equilibrium interaction of wildtype Kras or K-Ras mutant (e.g., wildtype or a mutant thereof) with SOS1 (e.g., hSOS1) can be assessed as a proxy or an indication for a subject compound's ability to bind and inhibit Ras protein. HTRF assay detects from (i) a fluorescence resonance energy transfer (FRET) donor (e.g., antiGST-Europium) that is bound to GST-tagged K-Ras mutant to (ii) a FRET acceptor (e.g., anti-6His-XL665) bound to a His-tagged hSOS1.
(§2) The assay buffer can contain ˜5 mM HEPES pH 7.4, ˜150 mM NaCl, ˜1 mM DTT, 0.05% BSA and 0.0025% (v/v) Igepal. A Ras working solution is prepared in an assay buffer containing typically a suitable amount of the protein construct (e.g., GST-tagged K-Ras mutant) and the FRET donor (e.g., antiGST-Eu(K) from Cisbio, France). A SOS1 working solution is prepared in an assay buffer containing suitable amount of the protein construct (e.g., His-hSOS1) and the FRET acceptor (e.g., anti-6His-XL665 from Cisbio, France). A suitable amount of the protein construct will depend on the range of activity or range of IC50 values being detected or under investigation. For detecting IC50 within a range of 500 nM, the protein constructs of the same range of molarity can be utilized.
(§3) A fixed volume of DMSO with or without test compound is transferred into a 384-well plate. Ras working solution is added to all wells of the test plate. SOS1 working solution is added to all wells except for those that are subsequently filled the inhibitor control solution. Upon incubation for about 10 minutes or longer, the fluorescence is measured with a M1000Pro plate reader (Tecan) using HTRF detection (excitation 337 nm, emission 1: 620 nm, emission 2: 665 nm). Compounds are tested in duplicate at different concentrations (for example, 10 μM, 2.5 μM, 0.63 μM, 0.16 μM, 0.04 μM, 0.01 μM test compound). The ratiometric data (i.e., emission 2 divided by emission 1) is used to calculate IC50 values against Ras using GraphPad Prism (GraphPad software). Following this general procedure, samples are tested with or without a subject compound disclosed herein including compounds exemplified in Table 1 to assess their abilities to inhibit a mutant K-Ras relative to another K-Ras (e.g., different mutant or wildtype). Signaling output measured in terms of IC50 values can be obtained, a ratio of IC50 against one mutant relative to another mutant can be calculated. For instance, a selective reduction of K-Ras G12D signaling output can be evidenced by a ratio greater than one. In particular, a selective reduction of K-Ras G12D signaling relative to K-Ras WT signaling is evidenced if the ratio of IC50 (against K-Ras WT) to IC50 (against K-Ras G12D) is greater than 1.

K-Ras G12S = molecular target: T2, K-Ras G12S (Homo sapiens, UniProt P01116, G12S); test: PPI-HTRF assay, K-Ras G12S / SOS1 interaction; format: biochemical; conditions: read-out: PPI-HTRF-5 nM (K-Ras G12S IC50)
T2 construct: made in house; host or cells: E. coli, e.g. BL21 (DE3)
Excerpt: as §1, §2, §3

K-Ras G12D = molecular target: T3, K-Ras G12D (Homo sapiens, UniProt P01116, G12D); test: PPI-HTRF assay, K-Ras G12D / SOS1 interaction; format: biochemical; conditions: HTRF, K-Ras G12D; read-out: PPI-HTRF-5 nM (K-Ras G12D IC50)
T3 construct: made in house; host or cells: E. coli, e.g. BL21 (DE3)
Excerpt: as §1, §2, §3

SW620 cells = test: Ras cellular assay, cell proliferation SW620; format: cell-based; conditions: Homo sapiens, SW-620
Excerpt: (§4) For example, this assay can be also used to assess selective growth inhibition of a mutant Ras protein relative to a wildtype, or relative to a different mutant Ras protein.

K-Ras G12V = molecular target: T4, K-Ras G12V (Homo sapiens, UniProt P01116, G12V); test: PPI-HTRF assay, K-Ras G12V / SOS1 interaction; format: biochemical; conditions: HTRF, K-Ras G12V; read-out: PPI-HTRF-5 nM (K-Ras G12V IC50)
T4 construct: made in house; host or cells: E. coli, e.g. BL21 (DE3)
Excerpt: as §1, §2, §3

GP2D cells = test: Ras cellular assay, cell proliferation GP2D; format: cell-based
Procedure: as §4
ASPC-1 (ATCC CRL-1682), Panc-10.05 (ATCC CRL-2547), A427, GP2d cell lines or any other cell lines comprising a G12D mutation can be used to assess Ras cellular signaling in vitro, e.g., in response to a compound described herein. For example, ASPC-1 culture medium is prepared with RPMI-1640 and 10% heat-inactivated FBS. Panc-10.05 culture medium is prepared with RPMI-1640, 10 Units/mL human recombinant insulin, and 10% FBS. A427 cell culture is prepared with RPMI-1640 and 10% heat-inactivated FBS. A CellTiter-Glo (CTG) luminescent based assay (Promega) is used to assess growth of the cells, as a measurement of the ability of the compounds herein to inhibit Ras signaling in the cells. The cells (e.g., 800 per well) are seeded in their respective culture medium in standard tissue culture-treated 384-well format plates (Falcon #08-772-116) or ultra-low attachment surface 384-well format plates (S-Bio #MS-9384UZ). The day after plating, cells are treated with a dilution series (e.g., a 9 point 3-fold dilution series) of the compounds herein (e.g., approximately 40 μL final volume per well). Cell viability can be monitored (e.g., approximately 5 days later) according to the manufacturer's recommended instructions, where the CellTiter-Glo reagent is added (e.g., approximately 10 μL), vigorously mixed, covered, and placed on a plate shaker (e.g., approximately for 20 min) to ensure sufficient cell lysis prior to assessment of luminescent signal. The IC50 values are determined using the four parameter fit. The resulting IC50 value is a measurement of the ability of the test compound to reduce cell growth of Ras-driven cells (e.g., tumor cell lines) in vitro and/or in vivo.

T4 sequence (P01116 1-188 isoform P01116-2 G12V): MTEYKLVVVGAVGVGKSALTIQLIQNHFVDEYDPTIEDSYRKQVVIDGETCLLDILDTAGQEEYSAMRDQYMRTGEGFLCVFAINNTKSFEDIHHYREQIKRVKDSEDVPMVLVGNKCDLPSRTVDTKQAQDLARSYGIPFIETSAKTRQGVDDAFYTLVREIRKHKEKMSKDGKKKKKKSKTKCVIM
T2 sequence (P01116 1-188 isoform P01116-2 G12S): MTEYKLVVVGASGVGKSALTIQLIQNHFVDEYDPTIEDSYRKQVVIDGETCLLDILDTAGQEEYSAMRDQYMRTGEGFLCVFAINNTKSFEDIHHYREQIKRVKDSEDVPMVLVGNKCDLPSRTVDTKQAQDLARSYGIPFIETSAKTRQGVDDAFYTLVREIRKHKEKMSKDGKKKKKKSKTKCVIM
T3 sequence (P01116 1-188 isoform P01116-2 G12D): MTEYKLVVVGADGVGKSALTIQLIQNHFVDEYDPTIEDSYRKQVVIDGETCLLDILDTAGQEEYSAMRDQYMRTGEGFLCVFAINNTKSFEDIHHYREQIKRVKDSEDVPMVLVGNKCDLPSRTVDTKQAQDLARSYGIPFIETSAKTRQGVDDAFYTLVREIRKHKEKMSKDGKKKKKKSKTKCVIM
T1 sequence (P01116 1-188 isoform P01116-2): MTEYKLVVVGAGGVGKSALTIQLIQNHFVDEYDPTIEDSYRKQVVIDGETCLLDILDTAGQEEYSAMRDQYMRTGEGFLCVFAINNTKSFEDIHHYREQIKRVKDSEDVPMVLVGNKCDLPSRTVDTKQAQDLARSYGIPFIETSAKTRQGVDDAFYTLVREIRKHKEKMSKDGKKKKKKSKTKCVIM

Structure (SMILES) | IC50 (wildtype K-Ras) [µM] | IC50 (K-Ras G12S) [µM] | IC50 (K-Ras G12D) [µM] | IC50 (SW620 cells) [µM] | IC50 (K-Ras G12V) [µM] | IC50 (GP2D cells) [µM]
N#Cc1c(N)sc2c(F)ccc(-c3c(Cl)c4c5c(nc(OC[C@@]67CCCN6C[C@H](F)C7)nc5c3F)N(CC(F)F)CC3COCC3O4)c12 (stereo partly drawn) [compound 112, 2-amino-4-(1-chloro-7-(2,2-difluoroethyl)-3-fluoro-5-(((2R,7aS)-2-fluorotetrahydro-1H-pyrrolizin-7a(5H)-yl)methoxy)-7,8,8a,9,11,11a-hexahydrofuro[3′,4′:7,8][1,5]oxazocino [4,3,2-de]quinazolin-2-yl)-7-fluorobenzo[b]thiophene-3-carbonitrile] | < 5 | < 5 | < 5 | < 5 | < 5 | > 5
CC(O)C1C[C@H]2CCCN2c2nc(OC[C@@]34CCCN3C[C@H](F)C4)nc3c(F)c(-c4ccc(F)c5sc(N)c(C#N)c45)c(Cl)c(c23)O1 (single isomer, unassigned) [compound 135] |  |  |  | > 5 |  | < 5
N#CCC1CCN2c3nc(OC[C@@]45CCCN4C[C@H](F)C5)nc4c(F)c(-c5ccc(F)c6sc(N)c(C#N)c56)c(Cl)c(c34)OCC2C1 (single isomer, unassigned) [compound 162] |  |  |  |  |  | < 5
N#Cc1c(N)sc2c(F)ccc(-c3c(Cl)c4c5c(nc(OC[C@@]67CCCN6C[C@H](F)C7)nc5c3F)N3[C@H](CO4)C[C@@H]3COC(F)F)c12 [compound 210, 2-amino-4-((8aS,10R)-6-chloro-10-((difluoromethoxy)methyl)-4-fluoro-2-(((2R,7aS)-2-fluorotetrahydro-1H-pyrrolizin-7a(5H)-yl)methoxy)-8,8a,9,10-tetrahydroazeto[2′,1′:3,4][1,4]oxazepino [5,6,7-de]quinazolin-5-yl)-7-fluorobenzo[b]thiophene-3-carbonitrile] | > 5 | > 5 | > 5 |  | > 5 | 
N#Cc1c(N)sc2c(F)ccc(-c3c(Cl)c4c5c(nc(OC[C@@]67CCCN6C[C@H](F)C7)nc5c3F)N3CCC[C@@H]3CC(C(F)F)O4)c12 (single isomer, unassigned) [compound 212] |  |  | < 5 | < 5 |  | < 5
N#Cc1c(N)sc2c(F)ccc(-c3c(Cl)c4c5c(nc(OC[C@@]67CCCN6C[C@H](F)C7)nc5c3F)N3CCC[C@@H]3CCO4)c12 [compound 183, 2-amino-4-((13aR)-10-chloro-8-fluoro-6-(((2R,7aS)-2-fluorotetrahydro-1H-pyrrolizin-7a(5H)-yl)methoxy)-1,2,3,12,13,13a-hexahydropyrrolo[1′,2′:5,6][1,5]oxazocino [4,3,2-de]quinazolin-9-yl)-7-fluorobenzo[b]thiophene-3-carbonitrile] |  |  |  |  |  | < 5
N#Cc1c(N)sc2c(F)ccc(-c3c(Cl)c4c5c(nc(OC[C@@]67CCCN6C[C@H](F)C7)nc5c3F)N3C[C@@H](N)C[C@H]3CO4)c12 [compound 191, 2-amino-4-((8aS,10S)-10-amino-6-chloro-4-fluoro-2-(((2R,7aS)-2-fluorotetrahydro-1H-pyrrolizin-7a(5H)-yl)methoxy)-8a,9,10,11-tetrahydro-8H-pyrrolo[2′,1′:3,4][1,4]oxazepino[5,6,7-de]quinazolin-5-yl)-7-fluorobenzo[b]thiophene-3-carbonitrile] | < 5 | < 5 | < 5 |  | < 5 | 
N#Cc1c(N)sc2c(F)ccc(-c3c(Cl)c4c5c(nc(OC[C@@]67CCCN6C[C@H](F)C7)nc5c3F)N3CC5(CCN5C(=O)n5cncn5)CC3CO4)c12 (stereo partly drawn) [compound 190, 2-amino-4-(6′-chloro-4′-fluoro-2′-(((2R,7aS)-2-fluorotetrahydro-1H-pyrrolizin-7a(5H)-yl)methoxy)-1-(1H-1,2,4-triazole-1-carbonyl)-8a′,9′-dihydro-8′H,11′H-spiro[azetidine-2,10′-pyrrolo[2′,1′:3,4][1,4]oxazepino[5,6,7-de]quinazolin]-5′-yl)-7-fluorobenzo[b]thiophene-3-carbonitrile] |  |  | < 5 |  |  | < 5

Continued, in another order:

IC50 (wildtype K-Ras) [µM] | IC50 (K-Ras G12S) [µM] | IC50 (K-Ras G12D) [µM] | IC50 (SW620 cells) [µM] | IC50 (K-Ras G12V) [µM] | Structure (SMILES) | IC50 (GP2D cells) [µM]
 |  | < 5 |  |  | N#Cc1c(N)sc2c(F)ccc(-c3c(Cl)c4c5c(nc(OCC67CCCN6C[C@H](F)C7)nc5c3F)N3CCCCC3CCO4)c12 (single isomer, unassigned) [compound 184] | < 5
< 5 | < 5 | < 5 |  | < 5 | N#Cc1c(N)sc2c(F)ccc(-c3c(Cl)c4c5c(nc(OC[C@@]67CCCN6C[C@H](F)C7)nc5c3F)N3CCC(F)(F)CC3CO4)c12 (stereo partly drawn) [compound 203, 2-amino-4-(6-chloro-4,10,10-trifluoro-2-(((2R,7aS)-2-fluorotetrahydro-1H-pyrrolizin-7a(5H)-yl)methoxy)-8,8a,9,10,11,12-hexahydropyrido[2′,1′:3,4][1,4]oxazepino [5,6,7-de]quinazolin-5-yl)-7-fluorobenzo[b]thiophene-3-carbonitrile] | 
 |  | < 5 |  |  | N#Cc1c(N)sc2c(F)ccc(-c3c(Cl)c4c5c(nc(OC[C@@]67CCCN6C[C@H](F)C7)nc5c3F)N3CCC(C#N)CC3CO4)c12 (single isomer, unassigned) [compound 211] | < 5
< 5 | < 5 | < 5 |  | < 5 | CN1c2nc(OC[C@@]34CCCN3C[C@H](F)C4)nc3c(F)c(-c4ccc(F)c5sc(N)c(C#N)c45)c(Cl)c(c23)OCC2COCCC21 (stereo partly drawn) [compound 198, 2-amino-4-(6-chloro-4-fluoro-2-(((2R,7aS)-2-fluorotetrahydro-1H-pyrrolizin-7a(5H)-yl)methoxy)-13-methyl-8a,9,11,12,12a,13-hexahydro-8H-pyrano[4′,3′:6,7][1,5]oxazocino[4,3,2-de]quinazolin-5-yl)-7-fluorobenzo[b]thiophene-3-carbonitrile] | 

— US12059425B2, “Heterocyclic compounds and uses thereof” (Kumquat Biosciences Inc., priority 2022, dated 2024)
